Tests used:
[1] = Release of entrained cargo from PEG-OND hydrogels; assay type: physicochemical; details: pH 7.4 PBS, 37° C.; first-order fit
Description: Finally, the diffusion of entrained, rather than covalently anchored, cargos of different sizes out of OND hydrogels of differing stabilities was measured. This was done with a small molecule (carboxyfluorescein), a globular protein (fluorescein-labeled bovine serum albumin, BSA), and a 30-nm protein nanoparticle (fluorescein-labeled bacteriophage Qb virus-like particle). The first and last species have no available thiol groups; the second was reacted with N-ethylmaleimide before gelation to cap cysteine-34 and avoid tethering of the protein cargo to the hydrogel network. Hydrogels derived from 4-PEG-SH and 7a, 7b, or 8 were formed in the presence of each cargo; the speed of this reaction made it highly unlikely that OND connectors were addressed by protein amine groups under these conditions.
Three sets of three 60 μL gels were prepared using linkers 7a, 7b, and 8, respectively. The first set contained 1 mM small molecule probe 5/6-carboxyfluorescein, while the second and third sets contained FITC labeled BSA and Qβ virus-like particle, respectively. The gels were allowed to set for 30 minutes at room temperature before dilution with 3 mL of pH 7.4 100 mM phosphate buffered saline. The samples were incubated at 37° C. and the increase in absorbance of the supernatant at 497 nm was monitored. The fraction of released dye was plotted against incubation time. Least-squares kinetic fitting to a first-order rate law was performed for release profiles obtained for carboxyfluorescein cargo, and for the release of BSA from non-degradable PEG-EONB (8) hydrogel (Solver plug-in, Microsoft Excel).

[2] = Calculation of hydrogel mesh size from equilibrium swelling data; assay type: physicochemical; details: for Calculated mesh size: equilibrium-swollen gels
Description: Using the calculated molecular weight between crosslinks, Mc, and the method previously described by Canal and Peppas, the hydrogel mesh size was calculated. First, the root-mean-square end-to-end distance of the polymer chains in the network, (r0^2)^1/2, was calculated as follows: (r0^2)^1/2=lCn^1/2n^1/2 (Equation S10) where l is the average bond length in the polymer (0.146 nm for PEG) and Cn is the characteristic ratio of the polymer (4.0 for PEG). The average number of bonds between crosslinks, n is calculated using the following equation:
[formula] where Mc is the average molecular weight between crosslinks, calculated as described in the previous section, and Mr is the molecular weight of the repeating unit for the PEG macromer (44 g/mol). Finally, the mesh size, ξ, is calculated using the following relationship: ξ=v2,s^−1/3(r0^2)^1/2 (Equation S12) where v2, is the partial volume of polymer in the equilibrium swollen hydrogel, and is calculated using the experimentally determined equilibrium weight swelling ratios.

[3] = Equilibrium swelling, gel fraction and Mc (Flory-Rehner) of PEG-OND hydrogels; assay type: physicochemical; details: for Mc (apparent molecular weight between elastic crosslinks): calculated with the Flory-Rehner equation from swelling results; for Gel Fraction: mass of dry residue post-swelling/input mass of OND and 4-PEG-SH; for Equilibrium Swelling Ratio: mass post-swelling/mass pre-swelling, deionized water, 4° C., 24 hours, n = 3 gels
Description: The swelling of the PEG-OND hydrogels in deionized water was measured at 4° C. to prevent significant fragmentation during the experiment. […] An independent experiment measuring soluble fraction thiol content yielded results complementing those obtained gravimetrically (Table S3, and related discussion below). With the knowledge that small molecules can readily permeate swollen PEG-OND hydrogels (see below), detecting and modifying residual thiols in gels prepared from divalent linkers 7a and 8 by swelling in the presence of a fluorogenic OND derivative was attempted (FIG. 15, and related discussion below).
200 μL gels were prepared in pH 7.4 100 mM phosphate buffered saline containing 7% DMSO with 3.5 wt % 4-PEG-SH and the corresponding bis-, tris-, and tetra-ONDs to provide a 1:1 thiol to electrophile ratio, and allowed to cure for 20 minutes at room temperature. The mass of the gels after curing was recorded (Meq) before suspending in 5.5 mL of water. The hydrogels were stored at 4° C. during swelling to prevent significant degradation of the network during the experiment. The increase in mass of the gels was monitored periodically by decanting and blotting the gel gently with a kimwipe to remove excess water before weighing. After 24 hours swelling, when swelling had stabilized, the mass of the gel was recorded (Meq). The equilibrium mass swelling ratio was then determined using the following relationship:
After weighing equilibrium-swelled gels to determine equilibrium mass swelling ratio, the gels were freeze-dried and the residual mass was weighed (Mres). It is expected that buffer salts present in the sample when it was formed were removed by the multiple changes of swelling solvent (pure water). The mass of the remaining residue was compared to the input mass (Min) of 4-PEG-SH macromer and OND-based linker. The ratio of the residual mass and the input mass provides the fraction of material by mass incorporated into the hydrogel network (gel fraction), as shown in the following equation: […]
The apparent molecular weight between elastically-productive crosslinks (Mc) was determined from equilibrium swelling data, collected as described in section VII.1 and applying a modified form of the Flory-Rehner equation for networks formed under dilute conditions:
[formula] where Mn is the number average molecular weight for the polymeric macromer (10,000 g/mol), v is the specific volume of the polymer ([…] for PEG) V1 is the molar volume of solvent used for swelling ([…] for water), χ is the polymer-interaction parameter (0.43 for PEG-H2O and assumed constant for the described experiments). V2, and V2, are the volume fraction of polymer in the equilibrium swollen gel and the relaxed gel after curing, respectively, and are calculated as follows:
[formula] where qw is the weight swelling ratio after equilibrium swelling, qF is the weight swelling ratio after curing, ρp is the density of the polymer (1.12 g/cm^3 for PEG), ρwater=ρcure solvent is the density of swelling solvent and solvent during gel formation (1.00 g/cm^3 for water). The weight swelling ratios qw and qF are determined from data gathered in equilibrium swelling experiments using the following relationships:
[formula] where ms is the mass of the gel after equilibrium swelling, mc is the mass of the gel after curing, and md is the mass of the dried gel, or input mass of polymer and crosslinkers.
Using the formulae above, masses of hydrogel samples recorded after equilibrium swelling, curing, and drying were applied to estimate the apparent molecular weight between crosslinks, which are summarized in Table 1 of the main text. The experimentally observed Mc values for gels formed using divalent OND linkers was lower than theoretical ideal value Mc,ideal. This can be explained by the fact that the Mc,ideal values calculated for these gels (entries 1-5 of Table S1) are greater than the entanglement molecular weight for polyethylene glycol (˜4,400 g/mol). […]

[4] = Degradation of neat PEG-OND hydrogels (inversion test, time-lapse photography); assay type: physicochemical; details: neat gel; for Time gel is stable / collapses (inversion test): no swelling buffer
Description: Degradation rates of the PEG-OND hydrogels in the absence of swelling buffer varied with temperature and with the identity of OND used to form the gel. […] In comparison, gels formed using 7b were stable for more than 60 hours at 37° C., and approximately 13 hours at 50° C.
Three 500 μL 3.5 wt % hydrogels were formed with bis-ONDs 7a and 7b, and bis-EONB 8, respectively, in 2 mL vials with caps. The sealed vials were incubated in an oil bath maintained at 50° C. The samples were periodically removed from heat and the vials were inverted to determine if the gel was still intact, or whether the sample was a free-flowing liquid, as described in the main text. The gel formed between 4-PEG-SH and bis-EONB 8 in FIG. 9 was removed from heat after 5 days, and stored at room temperature in a sealed vial. The hydrogel is still intact at the time of writing (5 days at 50° C. followed by >1 year at room temperature). The inversion test was routinely used in all stability experiments to verify hydrogel integrity during incubation.
In order to observe reverse gelation upon prolonged heating of neat hydrogels, time-lapse photography was carried out. Briefly, 600 μL hydrogels comprised of 3.5 wt % 4-PEG-SH+bis-OND/EONB (7a, 7b, and 8, respectively) in pH 7.4 100 mM potassium phosphate buffer containing 7% DMSO (v/v) were formed in glass culture tubes and allowed to set for 15 minutes. A glass bead (˜160 mg, stained with blue Sharpie-brand marker to improve visibility) was placed carefully on top of each gel, and a drop of silicon oil was added to prevent evaporation at the surface of the gels. The tubes were sealed with lab parafilm and incubated in a 50° C. oil bath. Photos were collected every 2 minutes for ˜22 hours using Chronolapse software (v.1.0.4) and a Creative Labs webcam. Photographs were compiled in chronological order using iMovie software, with each photo occupying one 0.1 s frame. The resulting video is available as S1 Video, mentioned above.

Compound	kdiffusion of entrained cargo out of PEG-OND hydrogels [1] [s⁻¹]	Average mesh size ([2]; average for equilibrium swelled hydrogels from linkers 7a, 7b and 8) [nm]	Calculated mesh size [2] [nm]	Mc (apparent molecular weight between elastic crosslinks) [3] [g/mol]	Gel Fraction [3]	Equilibrium Swelling Ratio [3]	Gel integrity on extended heating (inversion test) ([4]; 50° C.)	Gel stability by time-lapse photography, gel supporting a glass bead ([4]; heating (50° C.))	Time gel is stable / collapses (inversion test) ([4]; 37° C.)	Time gel is stable / collapses (inversion test) ([4]; 50° C.)	melting point [°C]
5/6-carboxyfluorescein [reference compound]	0.000183 ± 8.3e-06	–	–	–	–	–	–	–	–	–	–
CCOC(=O)C1=C(C(F)(F)F)C2C=CC1(CNC(=O)CCCC(=O)NCC13C=CC(O1)C(C(F)(F)F)=C3C(=O)OCC)O2 [Linker 7b, Diethyl 1,1′-((glutaroylbis(azanediyl))bis(methylene))bis(3-(trifluoromethyl)-7-oxabicyclo[2.2.1]hepta-2,5-diene-2-carboxylate)]	–	14.0±1.0	13.1 ± 0.1	3698 ± 16	0.96 ± 0.02	1.40 ± 0.02	collapsed	more stable than those made with 7a	more than 60 hours	approximately 13 hours	166 to 169
CCOC(=O)C1=C(C(F)(F)F)C2C=CC1(CNC(=O)CCCC(=O)NCC13C=CC(O1)C(C(=O)OC)=C3C(=O)OC)O2 (centres unmarked) [Linker 10, Dimethyl 1-((5-(((2-(ethoxycarbonyl)-3-(trifluoromethyl)-7-oxabicyclo[2.2.1]hepta-2,5-dien-1-yl)methyl)amino)-5-oxopentanamido)methyl)-7-oxabicyclo[2.2.1]hepta-2,5-diene-2,3-dicarboxylate]	–	–	15.1 ± 1.3	4112 ± 94	0.98 ± 0.04	1.87 ± 0.12	–	–	–	–	93 to 97
Bovine serum albumin: globular protein cargo, fluorescein-labeled bovine serum albumin	1.4e-05 ± 2.8e-06	–	–	–	–	–	–	–	–	–	–

Reference: patent publication US10517952B2, “Nucleophile-triggered degradable materials and methods of making and using the same” (GEORGIA TECH RESEARCH CORPORATION, priority 2014, dated 2019)
